Laboratory results published in publication PMC4222603, “Dual inhibition of HIV-1 replication by integrase-LEDGF allosteric inhibitors is predominant at the post-integration stage” (Retrovirology, 2013).

How the values were obtained:
[1] = molecular target: T1, IN 3′ processing activity (Human immunodeficiency virus type 1 group M subtype B, UniProt P12497); assay: IN 3′ processing radioactive assay; type: biochemical, HIV-1; conditions: at 100 nM
T1 construct: were carried out at 37°C with the full-length HIV-1 IN
Source text: (§1) Sequences of the different oligonucleotides (ODN) substrates are U5B: 5′-[…]-3′, U5A: 5′- […]-3′ and U5B-2: 5′-[…]-3′. ODNs were purchased from Eurogentec and further purified by electrophoresis in a denaturing 16% acrylamide/urea gel. For activity assays, ODNs (U5B and U5B-2) were radiolabelled with T4 polynucleotide kinase (New England Biolabs) and γ[^32-P]ATP (3000 Ci/mmol) (Amersham), and purified on a Sephadex G-10 column (GE Healthcare). Double-stranded ODNs (U5B with U5A and U5B-2 with U5A used for 3′-processing and strand transfer reactions, respectively) were obtained by mixing equimolar amounts of complementary strands in the presence of 100 mM NaCl.
(§2) IN activity assays – 3′-processing, strand transfer – were carried out at 37°C with the full-length HIV-1 IN, in a buffer containing 10 mM HEPES (pH 7.2), 1 mM DTT, 7.5 mM MgCl2 in the presence of 6.25 nM DNA (3′-processing) or 12.5 nM DNA (strand transfer) as described previously. For negative control, 100 mM Na2EDTA was added to the reaction before incubation. Products were separated by electrophoresis in denaturing 16% acrylamide/urea gels. Gels were analysed with a Molecular Dynamics STORM phosphoimager and quantified with ImageQuant™ 4.1 software.

[2] = molecular target: T2, IN strand transfer activity (full-length HIV-1 IN) (Human immunodeficiency virus type 1 group M subtype B, UniProt P12497); assay: IN strand transfer radioactive assay; type: biochemical
T2 construct: were carried out at 37°C with the full-length HIV-1 IN
Source text: as §1, §2

[3] = molecular target: His6-IN A128T (HIV-1 NL4-3 integrase mutant A128T) (HIV-1 NL4-3); assay: SEC; Superdex 200 10/300 GL, 0.4 mL/min, 50 mM HEPES pH 7.5, 1 M NaCl, 7 mM CHAPS, 5 mM MgCl2, 10 mM DTT, 10% glycerol, room temperature; His6-IN wt 21 uM or His6-IN A128T 40 uM; no compound
[4] = molecular target: His6-IN A128T (HIV-1 NL4-3 integrase mutant A128T) (HIV-1 NL4-3); assay: SEC; Superdex 200 10/300 GL, 0.4 mL/min, 50 mM HEPES pH 7.5, 1 M NaCl, 7 mM CHAPS, 5 mM MgCl2, 10 mM DTT, 10% glycerol, room temperature; His6-IN wt 21 uM or His6-IN A128T 40 uM incubated for 10 min with 100 uM BI-D or Mut101 before injection

Molecule	inhibition at 0.1 µM [1] [%]	IC50 [2] [nM]	stoichiometry N [3]	stoichiometry N [4]
C[C@@H]1CCO[C@H]2Cn3cc(C(=O)NCc4ccc(F)cc4F)c(=O)c(O)c3C(=O)N12 [DTG, Dolutegravir, reference compound]	16	2.7		
His6-IN A128T (HIV-1 NL4-3 integrase mutant A128T) (enzyme)			2	4
